{"source": "patent US8097722B2", "about": "(priority 2008, dated 2012); also: test concentration or dose not given here", "key": {"brain PMPMEase": {"tested_on": "brain PMPMEase", "type": "biochemical, porcine"}, "liver PMPMEase": {"tested_on": "liver PMPMEase", "type": "biochemical, porcine"}}, "data": [{"compound": "COP(=S)(OC)Oc1ccc(Sc2ccc(OP(=S)(OC)OC)cc2)cc1", "note": "[Abate]", "values": [{"measurement": "Brain Mean (mean percent inhibition relative to the controls)", "setting": "brain PMPMEase", "value": 59, "unit": "%"}, {"measurement": "Liver Mean (mean percent inhibition relative to the controls)", "setting": "liver PMPMEase", "value": 80, "unit": "%"}]}, {"compound": "COP(=S)(OC)SCn1nnc2ccccc2c1=O", "note": "[Azinphos-M]", "values": [{"measurement": "Brain Mean (mean percent inhibition relative to the controls)", "setting": "brain PMPMEase", "value": 73, "unit": "%"}, {"measurement": "Liver Mean (mean percent inhibition relative to the controls)", "setting": "liver PMPMEase", "value": 47, "unit": "%"}]}, {"compound": "CCOP(=S)(OCC)Oc1cc(Cl)c(Br)cc1Cl", "note": "[Bromophos-E]", "values": [{"measurement": "Brain Mean (mean percent inhibition relative to the controls)", "setting": "brain PMPMEase", "value": 68, "unit": "%"}, {"measurement": "Liver Mean (mean percent inhibition relative to the controls)", "setting": "liver PMPMEase", "value": 76, "unit": "%"}]}, {"compound": "CCOP(=S)(OCC)SCSc1ccc(Cl)cc1", "note": "[Carbophenothion]", "values": [{"measurement": "Brain Mean (mean percent inhibition relative to the controls)", "setting": "brain PMPMEase", "value": 55, "unit": "%"}, {"measurement": "Liver Mean (mean percent inhibition relative to the controls)", "setting": "liver PMPMEase", "value": 49, "unit": "%"}]}, {"compound": "CCOP(=S)(OCC)SCCl", "note": "[Chlormefos]", "values": [{"measurement": "Brain Mean (mean percent inhibition relative to the controls)", "setting": "brain PMPMEase", "value": 65, "unit": "%"}, {"measurement": "Liver Mean (mean percent inhibition relative to the controls)", "setting": "liver PMPMEase", "value": 86, "unit": "%"}]}, {"compound": "CCOP(=S)(OCC)ON=C(C#N)c1ccccc1Cl", "note": "[Chlorphoxim]", "values": [{"measurement": "Brain Mean (mean percent inhibition relative to the controls)", "setting": "brain PMPMEase", "value": 55, "unit": "%"}, {"measurement": "Liver Mean (mean percent inhibition relative to the controls)", "setting": "liver PMPMEase", "value": 100, "unit": "%"}]}, {"compound": "CCOP(=S)(OCC)Oc1nc(Cl)c(Cl)cc1Cl", "note": "[Chlorpyriphos]", "values": [{"measurement": "Brain Mean (mean percent inhibition relative to the controls)", "setting": "brain PMPMEase", "value": 67, "unit": "%"}, {"measurement": "Liver Mean (mean percent inhibition relative to the controls)", "setting": "liver PMPMEase", "value": 100, "unit": "%"}]}, {"compound": "CCOP(=S)(OCC)Oc1cc(Cl)c(SC)cc1Cl", "note": "[Chlorthiophos]", "values": [{"measurement": "Brain Mean (mean percent inhibition relative to the controls)", "setting": "brain PMPMEase", "value": 22, "unit": "%"}, {"measurement": "Liver Mean (mean percent inhibition relative to the controls)", "setting": "liver PMPMEase", "value": 52, "unit": "%"}]}, {"compound": "CCOP(=S)(OCC)Oc1ccc2c(C)c(Cl)c(=O)oc2c1", "note": "[Coumaphos]", "values": [{"measurement": "Brain Mean (mean percent inhibition relative to the controls)", "setting": "brain PMPMEase", "value": 62, "unit": "%"}, {"measurement": "Liver Mean (mean percent inhibition relative to the controls)", "setting": "liver PMPMEase", "value": 46, "unit": "%"}]}, {"compound": "COP(=S)(Oc1ccc(C#N)cc1)c1ccccc1", "note": "(centres unmarked) [Cyamophenphos]", "values": [{"measurement": "Brain Mean (mean percent inhibition relative to the controls)", "setting": "brain PMPMEase", "value": 52, "unit": "%"}, {"measurement": "Liver Mean (mean percent inhibition relative to the controls)", "setting": "liver PMPMEase", "value": 53, "unit": "%"}]}, {"compound": "COP(=S)(OC)Oc1ccc(C#N)cc1", "note": "[Cyanophos]", "values": [{"measurement": "Brain Mean (mean percent inhibition relative to the controls)", "setting": "brain PMPMEase", "value": 65, "unit": "%"}, {"measurement": "Liver Mean (mean percent inhibition relative to the controls)", "setting": "liver PMPMEase", "value": 89, "unit": "%"}]}, {"compound": "CCSCCSP(=O)(OC)OC", "note": "[Demeton-S-M]", "values": [{"measurement": "Brain Mean (mean percent inhibition relative to the controls)", "setting": "brain PMPMEase", "value": 31, "unit": "%"}, {"measurement": "Liver Mean (mean percent inhibition relative to the controls)", "setting": "liver PMPMEase", "value": 12, "unit": "%"}]}, {"compound": "CCOP(=O)(OCC)SCCSCC", "note": "[Demeton-S]", "values": [{"measurement": "Brain Mean (mean percent inhibition relative to the controls)", "setting": "brain PMPMEase", "value": 62, "unit": "%"}, {"measurement": "Liver Mean (mean percent inhibition relative to the controls)", "setting": "liver PMPMEase", "value": 96, "unit": "%"}]}, {"compound": "CCOP(=S)(OCC)SC(CCl)N1C(=O)c2ccccc2C1=O", "note": "(centres unmarked) [Dialifos]", "values": [{"measurement": "Brain Mean (mean percent inhibition relative to the controls)", "setting": "brain PMPMEase", "value": 52, "unit": "%"}, {"measurement": "Liver Mean (mean percent inhibition relative to the controls)", "setting": "liver PMPMEase", "value": 96, "unit": "%"}]}, {"compound": "CCOP(=S)(OCC)Oc1cc(C)nc(C(C)C)n1", "note": "[Diazinon]", "values": [{"measurement": "Brain Mean (mean percent inhibition relative to the controls)", "setting": "brain PMPMEase", "value": 31, "unit": "%"}, {"measurement": "Liver Mean (mean percent inhibition relative to the controls)", "setting": "liver PMPMEase", "value": 95, "unit": "%"}]}, {"compound": "CCOP(=S)(OCC)Oc1ccc(Cl)cc1Cl", "note": "[Dichlofenthion]", "values": [{"measurement": "Brain Mean (mean percent inhibition relative to the controls)", "setting": "brain PMPMEase", "value": "NO INHIBITION"}, {"measurement": "Liver Mean (mean percent inhibition relative to the controls)", "setting": "liver PMPMEase", "value": 56, "unit": "%"}]}, {"compound": "COP(=O)(OC)OC=C(Cl)Cl", "note": "[Dichlorvos]", "values": [{"measurement": "Brain Mean (mean percent inhibition relative to the controls)", "setting": "brain PMPMEase", "value": 81, "unit": "%"}, {"measurement": "Liver Mean (mean percent inhibition relative to the controls)", "setting": "liver PMPMEase", "value": 83, "unit": "%"}]}, {"compound": "CNC(=O)CSP(=S)(OC)OC", "note": "[Dimethoate]", "values": [{"measurement": "Liver Mean (mean percent inhibition relative to the controls)", "setting": "liver PMPMEase", "value": 12, "unit": "%"}]}, {"compound": "CCOP(=S)(OCC)SC1OCCOC1SP(=S)(OCC)OCC", "note": "(centres unmarked) [Dioxathion]", "values": [{"measurement": "Brain Mean (mean percent inhibition relative to the controls)", "setting": "brain PMPMEase", "value": 15, "unit": "%"}, {"measurement": "Liver Mean (mean percent inhibition relative to the controls)", "setting": "liver PMPMEase", "value": 57, "unit": "%"}]}, {"compound": "CCOP(=S)(OCC)SCCSCC", "note": "[Disulfoton]", "values": [{"measurement": "Brain Mean (mean percent inhibition relative to the controls)", "setting": "brain PMPMEase", "value": "NO INHIBITION"}, {"measurement": "Liver Mean (mean percent inhibition relative to the controls)", "setting": "liver PMPMEase", "value": 38, "unit": "%"}]}, {"compound": "CCOP(=S)(OCC)SCSP(=S)(OCC)OCC", "note": "[Ethion]", "values": [{"measurement": "Brain Mean (mean percent inhibition relative to the controls)", "setting": "brain PMPMEase", "value": "NO INHIBITION"}, {"measurement": "Liver Mean (mean percent inhibition relative to the controls)", "setting": "liver PMPMEase", "value": 92, "unit": "%"}]}, {"compound": "CCOc1cc(OP(=S)(OC)OC)nc(CC)n1", "note": "[Etrimfos]", "values": [{"measurement": "Brain Mean (mean percent inhibition relative to the controls)", "setting": "brain PMPMEase", "value": 78, "unit": "%"}, {"measurement": "Liver Mean (mean percent inhibition relative to the controls)", "setting": "liver PMPMEase", "value": 100, "unit": "%"}]}, {"compound": "CCOP(=O)(N=C1SCC(C)S1)OCC", "note": "(centres unmarked) [Mephosfolan]", "values": [{"measurement": "Liver Mean (mean percent inhibition relative to the controls)", "setting": "liver PMPMEase", "value": 100, "unit": "%"}]}, {"compound": "CCOP(=O)(NC(C)C)Oc1ccc(SC)c(C)c1", "note": "(centres unmarked) [Phenamiphos]", "values": [{"measurement": "Liver Mean (mean percent inhibition relative to the controls)", "setting": "liver PMPMEase", "value": 92, "unit": "%"}]}, {"compound": "CNC(=O)C(C)SCCSP(=O)(OC)OC", "note": "(centres unmarked) [Vamidothion]", "values": [{"measurement": "Liver Mean (mean percent inhibition relative to the controls)", "setting": "liver PMPMEase", "value": 55, "unit": "%"}]}, {"compound": "Dicrotophos", "values": [{"measurement": "Liver Mean (mean percent inhibition relative to the controls)", "setting": "liver PMPMEase", "value": 56, "unit": "%"}]}]}
